# Measurements from ChEMBL document CHEMBL1128042, “The effect of fluorine substitution on the haemotoxicity of Primaquine” (1995).
# Organism: Mus musculus
# Assay: Antimalarial activity was evaluated against Plasmodium berghei in female CD1 mice (Mus musculus) (20-25g)
# Assay type: functional
row,Compound,ED50 [µmol/kg]
1,COc1cc(NC(C)CCCN)c2ncccc2c1 (configuration not stated) [PRIMAQUINE],2.2
2,COc1cc(NC(C)CCCN)c2ncccc2c1F (configuration not stated),7.78
